Source: patent US20220016114A1, “Heart Rate Decreasing Agent” (FURUKAWA RESEARCH OFFICE CO., LTD., priority 2018, published 2022)
“Also recorded” adds a separate entry of the source.

Tested on: heart rate of a person
Test: Variation in heart rate before and after oral ingestion of orotic acid tablets, at rest and after drinking
Format: in vivo, human
Conditions: for Symptoms (4 to 5 hours after orotic acid ingestion): placebo: languor
Description: Tablets consisting of orotic acid were orally ingested and the variation in heart rate was measured before and after oral ingestion. The test subject was a person. Although they were told at their medical checkup that their cholesterol was slightly high, they had not taken any medication and had no preexisting condition. Their blood pressure was in the normal range, and they had never been diagnosed with a blood pressure problem in the past. Their heart rate was slightly high at about 89 to 92 beats/min, and rarely fell below 86 beats/min even at rest. Since the heart rate quickly increases due to exercise and tension or the like, the measurement day was spent as much as possible doing desk work and the like, and the measurement was made under stable conditions after sitting on a chair for at least several minutes. They were drinking 2 cans of beer and 2 to 3 double glasses of shochu daily. Their heart rate after drinking was increasing to about 105 to 115 beats/min (120 beats/min in rare cases), and they were feeling drunk and mild palpitation. They were also feeling sleepy on some days. The test subject ingested a tablet containing 200 mg of orotic acid by oral administration, and the measurement of their heart rate was started.

SMILES: O=C(O)c1cc(=O)[nH]c(=O)[nH]1 [Orotic acid, 1,2,3,6-tetrahydro-2,6-dioxo-4-pyrimidinecarboxylic acid]
- Overall effect on heart rate and on daily palpitation and fatigue (conclusion from Table 1, person, 200 mg oral): a decrease in heart rate was clearly observed; also recorded: improved the palpitation and fatigue that were felt on a daily basis
- Heart rate after stabilisation (later than 4 hours after ingestion) (person, 200 mg oral): in the 70s beats/min to the lower 80s beats/min
- Time after ingestion from which heart rate gradually decreased (person, 200 mg oral): about 2 hours
- Symptoms (after drinking) (person, 200 mg oral, after usual beer and shochu, placebo: slight drunkenness, mild palpitation, drowsiness): felt almost no drunkenness or palpitation
- Heart rate 1 to 2 hours after drinking (person, 200 mg oral, usual amount of beer and shochu after the decrease in heart rate, placebo 105 to 115 beats/min): 85 to 103 beats/min
- Symptoms (4 to 5 hours after orotic acid ingestion) (person, 200 mg oral): Clear head; also recorded: No languor
- Symptoms (4 to 5 hours after orotic acid ingestion) (person, 200 mg oral, listed as orotic acid): their head was more refreshed and no longer felt lethargic
- Heart rate 4 hours after ingestion (person, 200 mg oral, usual heart rate about 89 to 92 beats/min): ≤ 80 beats/min
- Heart rate 4 to 5 hours after orotic acid ingestion (person, tablet containing 200 mg orotic acid orally, sitting at rest, placebo 88 to 93 beats/min): 77 to 82 beats/min
